Laboratory results published in the NIST ThermoML archive (doi:10.1021/je800609u).

How the values were obtained:
[1] = refractive index (Na D-line) (dimensionless); mn = molality of the nth substance listed, in mol/kg; details: 101 kPa, Liquid
[2] = osmotic coefficient (dimensionless); mn = molality of the nth substance listed, in mol/kg; details: Liquid, vapor pressure osmometery method

CCCCn1cc[n+](C)c1.[I-] [1-butyl-3-methylimidazolium iodide] + O
Details | osmotic coefficient, 298.15 K | osmotic coefficient, 308.15 K | osmotic coefficient, 318.15 K | osmotic coefficient, 328.15 K | refractive index, 298.15 K | refractive index, 308.15 K | refractive index, 318.15 K | refractive index, 328.15 K
[1], m1 = 0.0133 | – | – | – | – | 1.3331 | 1.3321 | 1.3305 | 1.3285
[1], m1 = 0.0293 | – | – | – | – | 1.3336 | 1.3325 | 1.331 | 1.3289
[1], m1 = 0.0442 | – | – | – | – | 1.3343 | 1.333 | 1.3316 | 1.3293
[1], m1 = 0.0505 | – | – | – | – | 1.3346 | 1.3334 | 1.3317 | 1.3298
[1], m1 = 0.0786 | – | – | – | – | 1.3356 | 1.3344 | 1.3328 | 1.331
[1], m1 = 0.0995 | – | – | – | – | 1.3365 | 1.3353 | 1.3336 | 1.3315
[1], m1 = 0.1307 | – | – | – | – | 1.3376 | 1.3363 | 1.3347 | 1.3329
[1], m1 = 0.1782 | – | – | – | – | 1.3395 | 1.3381 | 1.3364 | 1.3347
[1], m1 = 0.216 | – | – | – | – | 1.341 | 1.3397 | 1.338 | 1.3359
[1], m1 = 0.3257 | – | – | – | – | 1.3449 | 1.3435 | 1.3418 | 1.3404
[1], m1 = 0.4065 | – | – | – | – | 1.3478 | 1.3467 | 1.3447 | 1.3433
[1], m1 = 0.5184 | – | – | – | – | 1.3519 | 1.3503 | 1.3487 | 1.3464
[1], m1 = 0.6452 | – | – | – | – | 1.356 | 1.3548 | 1.3529 | 1.3507
[1], m1 = 0.7509 | – | – | – | – | 1.3595 | 1.358 | 1.3561 | 1.3541
[1], m1 = 0.8786 | – | – | – | – | 1.3635 | 1.362 | 1.36 | 1.3578
[1], m1 = 1.154 | – | – | – | – | 1.3714 | 1.3701 | 1.368 | 1.3657
[1], m1 = 1.837 | – | – | – | – | 1.3893 | 1.3876 | 1.3853 | 1.3831
[1], m1 = 2.589 | – | – | – | – | 1.4054 | 1.4035 | 1.4012 | 1.3986
[2], m1 = 0.0133 | 0.833 | 0.856 | 0.899 | 0.91 | – | – | – | –
[2], m1 = 0.0293 | 0.821 | 0.843 | 0.888 | 0.889 | – | – | – | –
[2], m1 = 0.0442 | 0.792 | 0.821 | 0.88 | 0.885 | – | – | – | –
[2], m1 = 0.0505 | 0.784 | 0.814 | 0.869 | 0.878 | – | – | – | –
[2], m1 = 0.0786 | 0.766 | 0.788 | 0.845 | 0.861 | – | – | – | –
[2], m1 = 0.0995 | 0.761 | 0.78 | 0.819 | 0.833 | – | – | – | –
[2], m1 = 0.1307 | 0.751 | 0.765 | 0.782 | 0.807 | – | – | – | –
[2], m1 = 0.1782 | 0.711 | 0.734 | 0.758 | 0.778 | – | – | – | –
[2], m1 = 0.216 | 0.697 | 0.714 | 0.74 | 0.768 | – | – | – | –
[2], m1 = 0.3257 | 0.644 | 0.662 | 0.706 | 0.715 | – | – | – | –
[2], m1 = 0.4065 | 0.613 | 0.645 | 0.682 | 0.69 | – | – | – | –
[2], m1 = 0.5184 | 0.596 | 0.626 | 0.644 | 0.662 | – | – | – | –
[2], m1 = 0.6452 | 0.564 | 0.581 | 0.61 | 0.619 | – | – | – | –
[2], m1 = 0.7509 | 0.554 | 0.566 | 0.574 | 0.586 | – | – | – | –
[2], m1 = 0.8786 | 0.528 | 0.553 | 0.558 | 0.569 | – | – | – | –
[2], m1 = 1.154 | 0.47 | 0.501 | 0.521 | 0.528 | – | – | – | –
[2], m1 = 1.837 | 0.405 | 0.413 | 0.429 | 0.45 | – | – | – | –
[2], m1 = 2.589 | 0.362 | 0.38 | 0.387 | 0.408 | – | – | – | –

CCCCn1cc[n+](C)c1.[Cl-] [1-butyl-3-methylimidazolium chloride] + O
Details | osmotic coefficient, 298.15 K | osmotic coefficient, 308.15 K | osmotic coefficient, 318.15 K | osmotic coefficient, 328.15 K | refractive index, 298.15 K | refractive index, 308.15 K | refractive index, 318.15 K | refractive index, 328.15 K
[1], m1 = 0.0105 | – | – | – | – | 1.333 | 1.3317 | 1.3292 | 1.3273
[1], m1 = 0.023 | – | – | – | – | 1.3334 | 1.332 | 1.3295 | 1.3275
[1], m1 = 0.0289 | – | – | – | – | 1.3335 | 1.3323 | 1.3296 | 1.3277
[1], m1 = 0.0398 | – | – | – | – | 1.334 | 1.3326 | 1.33 | 1.328
[1], m1 = 0.0621 | – | – | – | – | 1.3343 | 1.333 | 1.3305 | 1.3288
[1], m1 = 0.0803 | – | – | – | – | 1.3349 | 1.3336 | 1.331 | 1.329
[1], m1 = 0.0986 | – | – | – | – | 1.3354 | 1.3341 | 1.3312 | 1.3297
[1], m1 = 0.1413 | – | – | – | – | 1.3366 | 1.3351 | 1.3325 | 1.3309
[1], m1 = 0.1816 | – | – | – | – | 1.3377 | 1.3363 | 1.3338 | 1.3319
[1], m1 = 0.2223 | – | – | – | – | 1.3388 | 1.3373 | 1.3346 | 1.3331
[1], m1 = 0.2764 | – | – | – | – | 1.3404 | 1.3389 | 1.3362 | 1.3343
[1], m1 = 0.3386 | – | – | – | – | 1.3419 | 1.3403 | 1.3377 | 1.3358
[1], m1 = 0.371 | – | – | – | – | 1.3428 | 1.3416 | 1.3387 | 1.3369
[1], m1 = 0.4863 | – | – | – | – | 1.3457 | 1.3441 | 1.3415 | 1.3398
[1], m1 = 0.599 | – | – | – | – | 1.3484 | 1.3469 | 1.3442 | 1.3422
[1], m1 = 0.7152 | – | – | – | – | 1.3512 | 1.3497 | 1.3467 | 1.3449
[1], m1 = 0.9754 | – | – | – | – | 1.3571 | 1.3562 | 1.3528 | 1.3508
[1], m1 = 1.492 | – | – | – | – | 1.3679 | 1.3661 | 1.3631 | 1.3611
[1], m1 = 2 | – | – | – | – | 1.3774 | 1.3754 | 1.3723 | 1.3703
[1], m1 = 2.962 | – | – | – | – | 1.3923 | 1.3904 | 1.3872 | 1.3849
[2], m1 = 0.0105 | 1 | 0.948 | 0.958 | 0.978 | – | – | – | –
[2], m1 = 0.023 | 0.958 | 0.929 | 0.932 | 0.939 | – | – | – | –
[2], m1 = 0.0289 | 0.932 | 0.924 | 0.935 | 0.938 | – | – | – | –
[2], m1 = 0.0398 | 0.892 | 0.911 | 0.916 | 0.921 | – | – | – | –
[2], m1 = 0.0621 | 0.855 | 0.866 | 0.881 | 0.906 | – | – | – | –
[2], m1 = 0.0803 | 0.833 | 0.861 | 0.869 | 0.873 | – | – | – | –
[2], m1 = 0.0986 | 0.827 | 0.864 | 0.865 | 0.867 | – | – | – | –
[2], m1 = 0.1413 | 0.814 | 0.844 | 0.857 | 0.862 | – | – | – | –
[2], m1 = 0.1816 | 0.789 | 0.817 | 0.823 | 0.832 | – | – | – | –
[2], m1 = 0.2223 | 0.779 | 0.794 | 0.807 | 0.822 | – | – | – | –
[2], m1 = 0.2764 | 0.772 | 0.79 | 0.797 | 0.81 | – | – | – | –
[2], m1 = 0.3386 | 0.768 | 0.779 | 0.798 | 0.803 | – | – | – | –
[2], m1 = 0.371 | 0.764 | 0.775 | 0.784 | 0.79 | – | – | – | –
[2], m1 = 0.4863 | 0.735 | 0.747 | 0.762 | 0.775 | – | – | – | –
[2], m1 = 0.599 | 0.718 | 0.738 | 0.75 | 0.759 | – | – | – | –
[2], m1 = 0.7152 | 0.716 | 0.731 | 0.748 | 0.755 | – | – | – | –
[2], m1 = 0.9754 | 0.699 | 0.709 | 0.723 | 0.733 | – | – | – | –
[2], m1 = 1.492 | 0.686 | 0.692 | 0.713 | 0.719 | – | – | – | –
[2], m1 = 2 | 0.686 | 0.694 | 0.706 | 0.721 | – | – | – | –
[2], m1 = 2.962 | 0.711 | 0.721 | 0.729 | 0.744 | – | – | – | –
